Assay results reported in patent US10881642B2, “Autophagy enhancer and use thereof” (Industry-Academic Cooperation Foundation, Yonsei University, priority 2016, dated 2021).

Tested on: mTOR
Experiment: Western blot for mTOR inhibition (S6K1 phosphorylation)
Format: cell-based
Conditions: immunoblot
Protocol: Screening of autophagy enhancer. […] Luciferase assay. Firefly and Renilla luciferase assays were conducted using the Dual-Luciferase Reporter Assay System (Promega) according to the manufacturer's recommendation. In brief, cells were lysed in 1× lysis buffer and subjected to a single round of freezing/thawing. Firefly luciferase was determined after mixing 5 μl of lysate with 25 μl of Luciferase Assay Reagent II. Renilla luciferase was then determined after further addition of 20 ul of Stop&Glo Reagent. Cell culture and media and drugs treatment. […] Cytotoxicity was determined by the measurement of LDH release in cell culture media using the LDH kit (Roche), according to the protocol from the manufacturer. […] Imaging and image quantification. […] Formation of acidic vesicular organelles was quantitated by staining the cells with acridine orange (Invitrogen, 5 ug/ml, 10 min). […] Cells or tissues were solubilized in lysis buffer supplemented with protease and phosphatase inhibitors and protein concentration was measured by the Bradford method. Ten to 30 micrograms were loaded on 4-12% Bis-Tris gel (NUPAGE, Invitrogen) or 8-15% SDS-PAGE, transferred to PVDF membranes and analyzed by western blot using the ECL method (Pierce). […] Protein levels were quantified by using ImageJ software analysis. […]

Q: How did the mTOR inhibition turn out when `COc1oc(-c2ccccc2Cl)nc1S(=O)(=O)c1ccccc1` [MSL-7, 2-(2-chlorophenyl)-5-methoxy-4-(phenylsulfonyl) oxazole] was run?
A: The mTOR inhibition was “without cellular toxicity or mTOR inhibition”.

Q: `CSc1oc(-c2ccccc2)nc1S(=O)(=O)c1ccc(F)cc1` [MSL] was tested. Which mTOR inhibition did it give?
A: Its mTOR inhibition is “does not involve mTOR inhibition”.
